target: T1, human muscarinic receptors (M3) (Homo sapiens, UniProt P20309); assay: Muscarinic receptor radioligand binding assay, [3H]-NMS, filter plate format; settings: M3, filter plate assay; read-out: Ki value in the filter plate assay
T1 construct: purchased
Description: Radioligand binding studies utilising [^3H]-N-methyl scopolamine ([^3H]-NMS) and commercially available cell membranes expressing the human muscarinic receptors (M2 and M3) were used to assess the affinity of muscarinic antagonists for M2 and M3 receptors. Membranes in TRIS buffer were incubated in 96-well plates with [^3H]-NMS and M3 antagonist at various concentrations for 3 hours. Membranes and bound radioligand were then harvested by filtration and allowed to dry overnight. Scintillation fluid was then added and the bound radioligand counted using a Canberra Packard Topcount scintillation counter

T1 sequence (P20309 whole entry): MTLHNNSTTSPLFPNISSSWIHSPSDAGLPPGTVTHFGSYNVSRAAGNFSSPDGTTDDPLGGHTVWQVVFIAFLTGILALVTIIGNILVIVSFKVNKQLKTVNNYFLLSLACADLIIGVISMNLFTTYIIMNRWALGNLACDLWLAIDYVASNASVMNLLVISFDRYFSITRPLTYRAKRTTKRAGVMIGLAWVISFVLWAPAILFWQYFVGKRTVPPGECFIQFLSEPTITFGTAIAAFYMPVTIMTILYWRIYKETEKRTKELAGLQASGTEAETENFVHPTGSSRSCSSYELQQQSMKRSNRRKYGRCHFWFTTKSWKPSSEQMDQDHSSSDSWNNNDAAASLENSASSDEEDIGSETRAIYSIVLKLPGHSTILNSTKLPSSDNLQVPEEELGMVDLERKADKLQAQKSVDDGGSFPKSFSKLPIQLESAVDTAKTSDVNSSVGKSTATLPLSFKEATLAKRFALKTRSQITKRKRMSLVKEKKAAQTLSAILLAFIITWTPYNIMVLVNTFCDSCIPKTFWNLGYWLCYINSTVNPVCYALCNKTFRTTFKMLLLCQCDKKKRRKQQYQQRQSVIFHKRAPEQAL

SMILES | Ki
OC(c1ccccc1)(c1ccccc1)c1ncc(C[N+]23CCC(CC2)C(Oc2ccccc2)C3)o1 (single isomer, unassigned; enantiomer 2) [Example 2, 1-[2-(Hydroxy-diphenyl-methyl)-oxazol-5-ylmethyl]-3-phenoxy-1-azoniabicyclo[2.2.2]octane bromide, enantiomer 2] | 0.9 nM
OC(c1ccccc1)(c1ncc(C[N+]23CCC(CC2)C(Oc2ccccc2)C3)o1)C1CCCCC1 (single isomer, unassigned; enantiomer 2) [Example 4, 1-[2-[(RS)—(Cyclohexyl-hydroxy-phenyl-methyl)]-oxazol-5-ylmethyl]-3-phenoxy-1-azonia-bicyclo[2.2.2]octane bromide, enantiomer 2] | 2 nM

same assay, conditions: filter plate format; read-out: M3 Ki (Filter plate format)

SMILES | Ki
OC(c1ccccc1)(c1ccccc1)c1ncc(C[N+]23CCC(CC2)C(Oc2ccccc2)C3)o1 (single isomer, unassigned; enantiomer 1) [Example 1, 1-[2-(Hydroxy-diphenyl-methyl)-oxazol-5-ylmethyl]-3-phenoxy-1-azoniabicyclo[2.2.2]octane bromide, enantiomer 1] | > 20 nM
OC(c1ccccc1)(c1ncc(C[N+]23CCC(CC2)C(Oc2ccccc2)C3)o1)C1CCCCC1 (single isomer, unassigned; enantiomer 1) [Example 3, 1-[2-[(RS)—(Cyclohexyl-hydroxy-phenyl-methyl)]-oxazol-5-ylmethyl]-3-phenoxy-1-azonia-bicyclo[2.2.2]octane bromide, enantiomer 1] | 5 to 20 nM
OC(c1ccccc1)(c1ccccc1)c1ncc(C[N+]23CCC(CC2)C(Oc2ccccc2)C3)o1 (single isomer, unassigned; enantiomer 2) [Example 2, 1-[2-(Hydroxy-diphenyl-methyl)-oxazol-5-ylmethyl]-3-phenoxy-1-azoniabicyclo[2.2.2]octane bromide, enantiomer 2] | < 5 nM
OC(c1ccccc1)(c1ncc(C[N+]23CCC(CC2)C(Oc2ccccc2)C3)o1)C1CCCCC1 (single isomer, unassigned; enantiomer 2) [Example 4, 1-[2-[(RS)—(Cyclohexyl-hydroxy-phenyl-methyl)]-oxazol-5-ylmethyl]-3-phenoxy-1-azonia-bicyclo[2.2.2]octane bromide, enantiomer 2] | < 5 nM

target: T2, Recombinant human M3 receptor (Homo sapiens, UniProt P20309); assay: biochemical; type: binding; settings: SPA format; read-out: M3 Ki (SPA format)
T2 construct: expressed in transfected cells; host or cells: CHO-K1 cells (membranes)
T2 sequence (P20309 whole entry): as above

SMILES | Ki
OC(c1ccccc1)(c1ccccc1)c1ncc(C[N+]23CCC(CC2)C(Oc2ccccc2)C3)o1 (single isomer, unassigned; enantiomer 1) [Example 1, 1-[2-(Hydroxy-diphenyl-methyl)-oxazol-5-ylmethyl]-3-phenoxy-1-azoniabicyclo[2.2.2]octane bromide, enantiomer 1] | > 20 nM
OC(c1ccccc1)(c1ccccc1)c1ncc(C[N+]23CCC(CC2)C(Oc2ccccc2)C3)o1 (single isomer, unassigned; enantiomer 2) [Example 2, 1-[2-(Hydroxy-diphenyl-methyl)-oxazol-5-ylmethyl]-3-phenoxy-1-azoniabicyclo[2.2.2]octane bromide, enantiomer 2] | < 5 nM
OC(c1ccccc1)(c1ccccc1)c1noc(C[N+]23CCC(CC2)[C@@H](Oc2ccsc2)C3)n1 [Example 115, (R)-1-[3-(Hydroxy-diphenyl-methyl)-[1,2,4]oxadiazol-5-ylmethyl]-3-(thiophen-3-yloxy)-1-azonia-bicyclo[2.2.2]octane; chloride] | < 5 nM
OC(c1ccccc1)(c1ccccc1)c1noc(C[N+]23CCC(CC2)[C@@H](Oc2cccs2)C3)n1 [Example 116, (R)-1-[3-(Hydroxy-diphenyl-methyl)-[1,2,4]oxadiazol-5-ylmethyl]-3-(thiophen-2-yloxy)-1-azonia-bicyclo[2.2.2]octane; chloride] | < 5 nM
OC(c1ccccc1)(c1ccccc1)c1noc(C[N+]23CCC(CC2)[C@@H](Oc2cccc(Cl)c2)C3)n1 [Example 117, (R)-3-(3-Chloro-phenoxy)-1-[3-(hydroxy-diphenyl-methyl)-[1,2,4]oxadiazol-5-ylmethyl]-1-azonia-bicyclo[2.2.2]octane; chloride] | < 5 nM
OC(c1ccccc1)(c1ccccc1)c1noc(C[N+]23CCC(CC2)[C@@H](Sc2ccccc2)C3)n1 [Example 118, (R)-1-[3-(Hydroxy-diphenyl-methyl)-[1,2,4]oxadiazol-5-ylmethyl]-3-phenylsulfanyl-1-azonia-bicyclo[2.2.2]octane; chloride] | < 5 nM
O[C@](c1ccccc1)(c1ncc(C[N+]23CCC(CC2)[C@@H](SC2CCCCC2)C3)o1)C1CCCCC1 [Example 119, (R)-1-[2-((R)—Cyclohexyl-hydroxy-phenyl-methyl)-oxazol-5-ylmethyl]-3-cyclohexylsulfanyl-1-azonia-bicyclo[2.2.2]octane; bromide] | < 5 nM
CC(C)CS[C@H]1C[N+]2(Cc3cnc([C@](O)(c4ccccc4)C4CCCCC4)o3)CCC1CC2 [Example 120, (R)-1-[2-((R)—Cyclohexyl-hydroxy-phenyl-methyl)-oxazol-5-ylmethyl]-3-isobutylsulfanyl-1-azonia-bicyclo[2.2.2]octane; bromide] | < 5 nM
O[C@](c1ccccc1)(c1nnc(C[N+]23CCC(CC2)[C@H](CSc2ccccc2)C3)o1)C1CCCCC1 [Example 121, (S)-1-[5-((R)—Cyclohexyl-hydroxy-phenyl-methyl)-[1,3,4]oxadiazol-2-ylmethyl]-3-phenylsulfanylmethyl-1-azonia-bicyclo[2.2.2]octane; bromide] | < 5 nM
O[C@](c1ccccc1)(c1nnc(C[N+]23CCC(CC2)[C@@H](Oc2cccc(F)c2)C3)o1)C1CCCCC1 [Example 134, (R)-1-[5-((R)—Cyclohexyl-hydroxy-phenyl-methyl)-[1,3,4]oxadiazol-2-ylmethyl]-3-(3-fluoro-phenoxy)-1-azonia-bicyclo[2.2.2]octane; bromide] | < 5 nM
OC(c1ccccc1)(c1ccccc1)c1noc(C[N+]23CCC(CC2)[C@@H](Oc2ccc4c(c2)OCO4)C3)n1 [Example 135, (R)-3-(Benzo[1,3]dioxol-5-yloxy)-1-[3-hydroxy-diphenyl-methyl)-[1,2,4]oxadiazol-5-ylmethyl]-1-azonia-bicyclo[2.2.2]octane; chloride] | < 5 nM
OC(c1ccccc1)(c1ccccc1)c1noc(C[N+]23CCC(CC2)[C@@H](Oc2ccc(Cl)cc2)C3)n1 [Example 136, (R)-3-(4-Chloro-phenoxy)-1-[3-(hydroxy-diphenyl-methyl)-[1,2,4]oxadiazol-5-ylmethyl]-1-azonia-bicyclo[2.2.2]octane; chloride] | < 5 nM
OC(c1ccccc1)(c1ccccc1)c1noc(C[N+]23CCC(CC2)[C@@H](Oc2cccc(C(F)(F)F)c2)C3)n1 [Example 137, (R)-1-[3-(Hydroxy-diphenyl-methyl)-[1,2,4]oxadiazol-5-ylmethyl]-3-(3-trifluoromethyl-phenoxy)-1-azonia-bicyclo[2.2.2]octane; chloride] | < 5 nM
OC(c1ccccc1)(c1ccccc1)c1noc(C[N+]23CCC(CC2)[C@@H](SC2CCCCC2)C3)n1 [Example 138, (R)-3-Cyclohexylsulfanyl-1-[3-(hydroxy-diphenyl-methyl)-[1,2,4]oxadiazol-5-ylmethyl]-1-azonia-bicyclo[2.2.2]octane; chloride] | < 5 nM
N#Cc1cccc(O[C@H]2C[N+]3(Cc4nc(C(O)(c5ccccc5)c5ccccc5)no4)CCC2CC3)c1 [Example 139, (R)-3-(3-Cyano-phenoxy)-1-[3-(hydroxy-diphenyl-methyl)-[1,2,4]oxadiazol-5-ylmethyl]-1-azonia-bicyclo[2.2.2]octane; chloride] | < 5 nM
O[C@](c1ccccc1)(c1nnc(C[N+]23CCC(CC2)[C@@H](OCc2ccc(F)cc2)C3)o1)C1CCCCC1 [Example 140, (R)-1-[5-((R)—Cyclohexyl-hydroxy-phenyl-methyl)-[1,3,4]oxadiazol-2-ylmethyl]-3-(4-fluoro-benzyloxy)-1-azonia-bicyclo[2.2.2]octane; bromide] | < 5 nM
OC(c1ccccc1)(c1ccccc1)c1noc(C[N+]23CCC(CC2)[C@@H](OCc2ccc(F)cc2)C3)n1 [Example 141, (R)-3-(4-Fluoro-benzyloxy)-1-[3-(hydroxy-diphenyl-methyl)-[1,2,4]oxadiazol-5-ylmethyl]-1-azonia-bicyclo[2.2.2]octane; chloride] | < 5 nM
O[C@](c1ccccc1)(c1nnc(C[N+]23CCC(CC2)[C@@H](Oc2ccc(F)cc2)C3)o1)C1CCCCC1 [Example 142, (R)-1-[5-((R)—Cyclohexyl-hydroxy-phenyl-methyl)-[1,3,4]oxadiazol-2-ylmethyl]-3-(4-fluoro-phenoxy)-1-azonia-bicyclo[2.2.2]octane; bromide] | < 5 nM

Source: patent publication US20100056565A1, “Heterocyclic Derivatives as M3 Muscarinic Receptors” (priority 2007, published 2010)
